{
  "source": "patent US4696933A",
  "about": "“Guanidine compounds useful as histamine H2-antagonists” (ICI Americas Inc., priority 1981, dated 1987)",
  "key": {"[1]": {"test": "intravenous toxicity in anaesthetised rats", "assay_type": "in vivo", "conditions": "two anaesthetised rats, ten times the dose giving approximate 50% inhibition of gastric secretion in the anaesthetised rat", "method": "(§1) No overt toxicity or side effects were noted during the rat or dog tests. The compound 5-[4-(2-allylguanidino)-1,2,3-triazol-2-yl]valeramide was administered intravenously to groups of two anaesthetised rats and four conscious mice at doses which were respectively ten times and one hundred times the dose, in mg/kg., which produced an approximate 50% inhibition of gastric secretion in the anaesthetised rat."}, "[2]": {"test": "intravenous toxicity in conscious mice", "assay_type": "in vivo", "conditions": "four conscious mice, one hundred times the dose giving approximate 50% inhibition of gastric secretion in the anaesthetised rat", "method": "as §1"}},
  "data": [
    {"smiles": "C=CCN=C(N)Nc1cnn(CCCCC(N)=O)n1.O=C(O)/C=C\\C(=O)O", "note": "[Example 8, 5-(4-[2-allylguanidino]-1,2,3-triazol-2-yl)valeramide maleate]", "values": [
      {"measurement": "toxic symptoms", "setting": "[1]", "value": "No toxic symptoms were noted"},
      {"measurement": "toxic symptoms", "setting": "[2]", "value": "No toxic symptoms were noted"}
    ]}
  ]
}
